Experimental data taken from patent US8846710B2, “Method of preferentially inducing the biosynthesis of interferon” (3M Innovative Properties Company, priority 2005, dated 2014).

Tests used:
[1] = tested on: tumor necrosis factor (α) (TNF-α); assay: Cytokine induction in human cells: TNF-α secreted by PBMC into culture media (ORIGEN M-Series immunoassay); assay type: cell-based; details: Table 11, human PBMC; for Minimum Effective Concentration TNF: median where tested in more than one experiment; for Maximal Response TNF: median, * = TNF below experimental background of 40 pg/mL
Outline: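 Secreted TNF-α (pg/mL) was quantified by ORIGEN M-Series immunoassay after 18 to 24 hours culture at 37° C of human PBMC (2×10^6 cells/mL final) with test compound (usually 30-0.014 μM, 3-fold series, DMSO ≤1%). Values were corrected for DMSO or experimental background and a reference-compound ratio, giving a minimum effective concentration.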

[2] = tested on: interferon (α) (IFN-α); assay: Cytokine induction in human cells: IFN-α secreted by PBMC into culture media (ELISA); assay type: cell-based; details: Table 11; human PBMC; median where tested in more than one experiment
Outline: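 IFN-α secreted by density-gradient-isolated PBMC (final 2×10^6 cells/mL) was quantified by ELISA after 18–24 h compound exposure at 37 °C, typically 30-0.014 μM in 3-fold steps with ≤1% DMSO. Readings corrected for background and reference-compound variability; lowest concentration above usually 20 pg/mL reported, plus maximal response (pg/mL).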

For CCOCc1nc2c(N)nc3ccccc3c2n1CCCCNS(C)(=O)=O [Analog 51], the “Minimum Effective Concentration TNF” value [1] was 1.11 µM, the “Maximal Response TNF” value [1] was 1439 pg/mL and the “Maximal Response IFN” value [2] was 2581 pg/mL. For the same compound, the “Minimum Effective Concentration IFN” value [2] was 0.04 µM.

For COCCc1nc2c(N)nc3ccccc3c2n1CCCCNS(C)(=O)=O [Analog 52], the “Minimum Effective Concentration TNF” value [1] was 0.37 µM, the “Maximal Response TNF” value [1] was 1931 pg/mL and the “Maximal Response IFN” value [2] was 7594 pg/mL. The “Minimum Effective Concentration IFN” value [2] was 0.014 µM.

In the case of Cc1nc2c(N)nc3ccccc3c2n1CCCCNC(=O)N1CCOCC1 [Analog 53], the “Minimum Effective Concentration TNF” value [1] is reported as 10 µM, the “Maximal Response TNF” value [1] is reported as 1400 pg/mL and the “Maximal Response IFN” value [2] is reported as 1538 pg/mL. For the same compound, the “Minimum Effective Concentration IFN” value [2] was 0.12 µM.

CCc1nc2c(N)nc3ccccc3c2n1CCCCNC(=O)N1CCOCC1 [Analog 54] was tested, and the “Minimum Effective Concentration TNF” value [1] was 3.33 µM, the “Maximal Response TNF” value [1] was 2570 pg/mL and the “Maximal Response IFN” value [2] was 4975 pg/mL. For the same compound, the “Minimum Effective Concentration IFN” value [2] was 0.37 µM.

In the case of CCCc1nc2c(N)nc3ccccc3c2n1CCCCNC(=O)N1CCOCC1 [Analog 55], the “Minimum Effective Concentration TNF” value [1] is reported as 1.11 µM, the “Maximal Response TNF” value [1] is reported as 1298 pg/mL and the “Maximal Response IFN” value [2] is reported as 11255 pg/mL. The “Minimum Effective Concentration IFN” value [2] was 0.12 µM.

With CCOCc1nc2c(N)nc3ccccc3c2n1CCCCNC(=O)N1CCOCC1 [Analog 56] the “Minimum Effective Concentration TNF” value [1] was 1.11 µM, the “Maximal Response TNF” value [1] was 1580 pg/mL and the “Maximal Response IFN” value [2] was 3433 pg/mL. The “Minimum Effective Concentration IFN” value [2] was 0.12 µM.

In the case of COCCc1nc2c(N)nc3ccccc3c2n1CCCCNC(=O)N1CCOCC1 [Analog 57], the “Minimum Effective Concentration TNF” value [1] is reported as 0.04 µM, the “Maximal Response TNF” value [1] is reported as 3494 pg/mL and the “Maximal Response IFN” value [2] is reported as 8889 pg/mL. The “Minimum Effective Concentration IFN” value [2] was 0.014 µM.

CCc1nc2c(N)nc3ccccc3c2n1CCCNS(C)(=O)=O [Analog 59] was tested, and the “Minimum Effective Concentration TNF” value [1] was 30 µM, the “Maximal Response TNF” value [1] was 238 pg/mL and the “Maximal Response IFN” value [2] was 1912 pg/mL. The “Minimum Effective Concentration IFN” value [2] was 1.11 µM.

CCCc1nc2c(N)nc3ccccc3c2n1CCCNS(C)(=O)=O [Analog 60] was tested, and the “Minimum Effective Concentration TNF” value [1] was 10 µM, the “Maximal Response TNF” value [1] was 109 pg/mL and the “Maximal Response IFN” value [2] was 2148 pg/mL. The “Minimum Effective Concentration IFN” value [2] was 1.11 µM.

For CCOCc1nc2c(N)nc3ccccc3c2n1CCCNS(C)(=O)=O [Analog 61], the “Minimum Effective Concentration TNF” value [1] was 10 µM, the “Maximal Response TNF” value [1] was 463 pg/mL and the “Maximal Response IFN” value [2] was 1338 pg/mL. The “Minimum Effective Concentration IFN” value [2] was 0.37 µM.

For COCCc1nc2c(N)nc3ccccc3c2n1CCCNS(C)(=O)=O [Analog 62], the “Minimum Effective Concentration TNF” value [1] was 1.11 µM, the “Maximal Response TNF” value [1] was 954 pg/mL and the “Maximal Response IFN” value [2] was 3995 pg/mL. The “Minimum Effective Concentration IFN” value [2] was 0.014 µM.

In the case of Cc1nc2c(N)nc3ccccc3c2n1CC(C)(C)CNS(C)(=O)=O [Analog 63], the “Minimum Effective Concentration TNF” value [1] is reported as 10 µM, the “Maximal Response TNF” value [1] is reported as 805 pg/mL and the “Maximal Response IFN” value [2] is reported as 1019 pg/mL. The “Minimum Effective Concentration IFN” value [2] was 0.37 µM.

With CCc1nc2c(N)nc3ccccc3c2n1CC(C)(C)CNS(C)(=O)=O [Analog 64] the “Minimum Effective Concentration TNF” value [1] was 3.33 µM, the “Maximal Response TNF” value [1] was 1453 pg/mL and the “Maximal Response IFN” value [2] was 1431 pg/mL. For the same compound, the “Minimum Effective Concentration IFN” value [2] was 0.12 µM.

CCCc1nc2c(N)nc3ccccc3c2n1CC(C)(C)CNS(C)(=O)=O [Analog 65] was tested, and the “Minimum Effective Concentration TNF” value [1] was 10 µM, the “Maximal Response TNF” value [1] was 1929 pg/mL and the “Maximal Response IFN” value [2] was 1711 pg/mL. For the same compound, the “Minimum Effective Concentration IFN” value [2] was 0.12 µM.

CCOCc1nc2c(N)nc3ccccc3c2n1CC(C)(C)CNS(C)(=O)=O [Analog 66] was tested, and the “Minimum Effective Concentration TNF” value [1] was 0.37 µM, the “Maximal Response TNF” value [1] was 3768 pg/mL and the “Maximal Response IFN” value [2] was 561 pg/mL. The “Minimum Effective Concentration IFN” value [2] was 0.12 µM.

For COCCc1nc2c(N)nc3ccccc3c2n1CC(C)(C)CNS(C)(=O)=O [Analog 67], the “Minimum Effective Concentration TNF” value [1] was 0.04 µM, the “Maximal Response TNF” value [1] was 5467 pg/mL and the “Maximal Response IFN” value [2] was 1805 pg/mL. For the same compound, the “Minimum Effective Concentration IFN” value [2] was 0.014 µM.

For Cc1nc2c(N)nc3ccccc3c2n1CCNS(C)(=O)=O [Analog 68], the “Minimum Effective Concentration TNF” value [1] was 10 µM, the “Maximal Response TNF” value [1] was 820 pg/mL and the “Maximal Response IFN” value [2] was 1610 pg/mL. For the same compound, the “Minimum Effective Concentration IFN” value [2] was 0.12 µM.

CCc1nc2c(N)nc3ccccc3c2n1CCNS(C)(=O)=O [Analog 69] was tested, and the “Minimum Effective Concentration TNF” value [1] was 10 µM, the “Maximal Response TNF” value [1] was 820 pg/mL and the “Maximal Response IFN” value [2] was 1610 pg/mL. The “Minimum Effective Concentration IFN” value [2] was 0.12 µM.

With CCCc1nc2c(N)nc3ccccc3c2n1CCNS(C)(=O)=O [Analog 70] the “Minimum Effective Concentration TNF” value [1] was 10 µM, the “Maximal Response TNF” value [1] was 11432 pg/mL and the “Maximal Response IFN” value [2] was 2003 pg/mL. The “Minimum Effective Concentration IFN” value [2] was 30 µM.

For CCOCc1nc2c(N)nc3ccccc3c2n1CCNS(C)(=O)=O [Analog 71], the “Minimum Effective Concentration TNF” value [1] was 3.33 µM, the “Maximal Response TNF” value [1] was 4918 pg/mL and the “Maximal Response IFN” value [2] was 1465 pg/mL. The “Minimum Effective Concentration IFN” value [2] was 0.12 µM.

With COCCc1nc2c(N)nc3ccccc3c2n1CCNS(C)(=O)=O [Analog 72] the “Minimum Effective Concentration TNF” value [1] was 0.04 µM, the “Maximal Response TNF” value [1] was 8547 pg/mL and the “Maximal Response IFN” value [2] was 5858 pg/mL. The “Minimum Effective Concentration IFN” value [2] was 0.014 µM.

Cc1nc2c(N)nc3ccccc3c2n1CCCCCS(C)(=O)=O [Analog 73] was tested, and the “Minimum Effective Concentration TNF” value [1] was 3.33 µM, the “Maximal Response TNF” value [1] was 771 pg/mL and the “Maximal Response IFN” value [2] was 1294 pg/mL. The “Minimum Effective Concentration IFN” value [2] was 0.37 µM.

CCc1nc2c(N)nc3ccccc3c2n1CCCCCS(C)(=O)=O [Analog 74] was tested, and the “Minimum Effective Concentration TNF” value [1] was 1.11 µM, the “Maximal Response TNF” value [1] was 1545 pg/mL and the “Maximal Response IFN” value [2] was 1062 pg/mL. The “Minimum Effective Concentration IFN” value [2] was 0.12 µM.

For CCCc1nc2c(N)nc3ccccc3c2n1CCCCCS(C)(=O)=O [Analog 75], the “Minimum Effective Concentration TNF” value [1] was 1.11 µM, the “Maximal Response TNF” value [1] was 848 pg/mL and the “Maximal Response IFN” value [2] was 828 pg/mL. The “Minimum Effective Concentration IFN” value [2] was 0.12 µM.

In the case of COCCc1nc2c(N)nc3ccccc3c2n1CCCCCS(C)(=O)=O [Analog 76], the “Minimum Effective Concentration TNF” value [1] is reported as 1.11 µM, the “Maximal Response TNF” value [1] is reported as 6169 pg/mL and the “Maximal Response IFN” value [2] is reported as 2695 pg/mL. For the same compound, the “Minimum Effective Concentration IFN” value [2] was 0.014 µM.

In the case of Cc1nc2c(N)nc3ccccc3c2n1CCOCCN(C)S(C)(=O)=O [Analog 77], the “Minimum Effective Concentration TNF” value [1] is reported as 1.11 µM, the “Maximal Response TNF” value [1] is reported as 3571 pg/mL and the “Maximal Response IFN” value [2] is reported as 1001 pg/mL. For the same compound, the “Minimum Effective Concentration IFN” value [2] was 0.12 µM.

With CCc1nc2c(N)nc3ccccc3c2n1CCOCCN(C)S(C)(=O)=O [Analog 78] the “Minimum Effective Concentration TNF” value [1] was 1.11 µM, the “Maximal Response TNF” value [1] was 2525 pg/mL and the “Maximal Response IFN” value [2] was 1803 pg/mL. The “Minimum Effective Concentration IFN” value [2] was 0.12 µM.

With CCCc1nc2c(N)nc3ccccc3c2n1CCOCCN(C)S(C)(=O)=O [Analog 79] the “Minimum Effective Concentration TNF” value [1] was 3.33 µM, the “Maximal Response TNF” value [1] was 1312 pg/mL and the “Maximal Response IFN” value [2] was 1055 pg/mL. For the same compound, the “Minimum Effective Concentration IFN” value [2] was 0.37 µM.

With COCCc1nc2c(N)nc3ccccc3c2n1CCOCCN(C)S(C)(=O)=O [Analog 80] the “Minimum Effective Concentration TNF” value [1] was 0.37 µM, the “Maximal Response TNF” value [1] was 2191 pg/mL and the “Maximal Response IFN” value [2] was 1630 pg/mL. For the same compound, the “Minimum Effective Concentration IFN” value [2] was 0.014 µM.

For Cc1nc2c(N)nc3ccccc3c2n1CCCNC(=O)NC(C)C [Analog 81], the “Minimum Effective Concentration TNF” value [1] was 10 µM, the “Maximal Response TNF” value [1] was 490 pg/mL and the “Maximal Response IFN” value [2] was 1134 pg/mL. The “Minimum Effective Concentration IFN” value [2] was 3.33 µM.

For CCCc1nc2c(N)nc3ccccc3c2n1CCCNC(=O)NC(C)C [Analog 82], the “Minimum Effective Concentration TNF” value [1] was 1.11 µM, the “Maximal Response TNF” value [1] was 3740 pg/mL and the “Maximal Response IFN” value [2] was 6571 pg/mL. For the same compound, the “Minimum Effective Concentration IFN” value [2] was 0.12 µM.
